One test relates to HCT-116. Nature of the test: NCI one-dose SRB anti-proliferative screen. The settings on record: for inhibition at 10 µM: Homo sapiens, read-out: Cell growth inhibition %. It counts as cell-based, human. The method, then: (§1) The twenty-four synthesized compounds were submitted to the National Cancer Institute (NCI), USA. Eighteen hybrids 7a-h, 7k-r, 7u, and 7v were selected by NCI for one-dose assessment of their anti-proliferative activities at 10 µM dose by Sulforhodamine B colorimetric assay. The assessment was performed in 60 cell lines derived from nine tumor subpanels, comprising lung, leukemia, melanoma, colon, renal, CNS, prostate, breast, and ovarian cancer cell lines.
(§2) The methodology of the NCI anti-proliferative screening has been described in details elsewhere (http://www.dtp.nci.nih.gov).

The subject of the next test is K-562. In words: NCI one-dose SRB anti-proliferative screen. It counts as cell-based, human. The settings on record: Homo sapiens, K562, read-out: Cell growth inhibition %. The method, then: as §1, §2
A further test concerns MOLT-4. Nature of the test: NCI one-dose SRB anti-proliferative screen. In kind it is cell-based, human. As to conditions: Homo sapiens, read-out: Cell growth inhibition %. The method, then:
as §1, §2

A further test relates to RXF 393. In words: NCI one-dose SRB anti-proliferative screen. It counts as cell-based, human. As to conditions: Homo sapiens, read-out: Cell growth inhibition %. As to the method: as §1, §2
A further test concerns T-47D. Nature of the test: NCI one-dose SRB anti-proliferative screen. The settings on record: for inhibition at 10 µM: Homo sapiens, T47D, read-out: Cell growth inhibition %. It counts as cell-based, human. As to the method: as §1, §2
The next test has as its system UACC-257. In words: NCI one-dose SRB anti-proliferative screen. In kind it is cell-based. The settings on record: Homo sapiens, read-out: Cell growth inhibition %. The essentials: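 Compounds were tested at a single 10 µM concentration within a 60-cell-line panel covering nine tumour subpanels. Growth was read colorimetrically by sulforhodamine B staining.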
A further test has as its system A-549. In words: Propidium iodide anti-proliferative assay. The settings on record: Homo sapiens, A549; 48 h incubation; read-out: IC50 ± SEM A-549. It counts as cell-based. As to the method: (§3) The propidium iodide (PI) tests^31, 32 were further used for assessment of the IC50 of all synthesized compounds and compared to Doxorubicin as a positive control against four cancer cell lines; pancreatic cancer cell line (Panc-1), epithelial line cancer cell (A-549), breast cancer cell line (MCF-7), and colon cancer cell line (HT-29).
(§4) Using the propidium iodide fluorescence assay with doxorubicin as the reference drug, IC50 of the 24 compounds 7a-x, was carried out according to a previously reported procedure^31, 32 against a panel of four human cancer cell lines; epithelial cancer cell line (A-549), breast cancer cell line (MCF-7), colon cancer cell line (HT-29) and pancreas cancer cell line (Panc-1). Compounds 7a-x were incubated with cancer cells for 2 days at different concentrations. See Appendix A.
(§5) To explore the antiproliferative potential of compounds propidium iodide fluorescence assay was performed using different cell lines (melanoma cancer cell line LOX-IMVI, pancreatic cancer cell line (Panc-1), epithelial line cancer cell (A-549), breast cancer cell line (MCF-7), and colon cancer cell line (HT-29). To calculate the total nuclear DNA, a fluorescent dye (propidium iodide, PI) is used which can attach to the DNA,^9,^10 thus offering a quick and precise technique. PI cannot pass through the cell membrane and its signal intensity can be considered as directly proportional to the quantity of cellular DNA. Cells whose cell membranes are damaged or have changed permeability are counted as dead ones. The assay was performed by seeding the cells of different cancer cell lines at a density of 3000-7500 cells/well (in 200µl medium) in culture plates followed by incubation for 24h at 37 °C in humidified 5% CO2/95% air atmospheric conditions. The medium was removed; the compounds were added to the plates at 10 µM concentrations (in 0.1% DMSO) in triplicates, followed by incubation for 48 h. DMSO (0.1%) was used as control. After incubation, medium was removed followed by the addition of PI (25 µl, 50µg/mL in water/medium) to each well of the plates. At -80 °C, the plates were allowed to freeze for 24 h, followed by thawing at 25 °C. A fluorometer (Polar-Star BMG Tech) was used to record the readings at excitation and emission wavelengths of 530 and 620 nm for each well. The percentage cytotoxicity of compounds was calculated using the following formula:
(§6) Where ATC= Absorbance of treated cells and AC= Absorbance of control. […]

Another test concerns HT-29. Nature of the test: Propidium iodide anti-proliferative assay. In kind it is cell-based. The settings on record: Homo sapiens, 48 h incubation, read-out: IC50 ± SEM HT-29. As to the method: as §3, §4, §5, §6
For the next test, the system named is MCF-7. In words: Propidium iodide anti-proliferative assay. It counts as cell-based. The settings on record: Homo sapiens, MCF7; 48 h incubation; read-out: IC50 ± SEM MCF-7. As to the method: as §3, §4, §5, §6
The test system of a further test is Panc-1. In words: Propidium iodide anti-proliferative assay. It counts as cell-based. As to conditions: Homo sapiens, 48 h incubation, read-out: IC50 ± SEM Panc-1. As to the method:
as §3, §4, §5, §6

Setting [1] is: HCT-116, Colon cancer, NCI one dose.
Setting [2] is: RXF 393, Renal cancer, NCI one dose.
Where [3] appears, read: T-47D, Breast cancer, NCI one dose.
Where [4] appears, read: UACC-257, Melanoma, NCI one dose.
Setting [5] is: HCT-116 (Colon Cancer), NCI one dose 10 µM.
Setting [6] is: K-562 (Leukemia), NCI one dose 10 µM.
Setting [7] is: MOLT-4 (Leukemia), NCI one dose 10 µM.
Setting [8] is: RXF 393 (Renal Cancer), NCI one dose 10 µM.
[9] abbreviates: T-47D (Breast Cancer), NCI one dose 10 µM.
[10] abbreviates: UACC-257 (Melanoma), NCI one dose 10 µM.

Like-named read-outs stand apart in the source and are kept apart here.

The term inhibition denotes how much of the control response was suppressed. Usually IC50 stands for the midpoint of a concentration-inhibition curve.

Consider `O=C(CSc1nnc(-c2ccc3[nH]c(-c4ccccc4)nc3c2)o1)Nc1ccc(C(=O)/C=C/c2ccccc2)cc1` [Compound 7a, 2-{5-[2-Phenyl-1 H-benzo[d]imidazol-5-yl]-1,3,4-oxadiazol-2-ylthio}-N-{4-[(E)-3-phenylacryloyl]phenyl}acetamide], for which the inhibition at 10 µM was determined as 3.03% with HCT-116 (setting [1]); 0% in the test with K-562 (K-562, Leukemia, NCI one dose); 6.84% in the test on MOLT-4 (MOLT-4, Leukemia, NCI one dose); 0% in the test on RXF 393 (setting [2]); 1.45% in the test on T-47D (setting [3]); 0% in the test with UACC-257 (setting [4]). The IC50 with A-549 was 9.9 ± 1.1 µM; with HT-29, 11.2 ± 1.4 µM; in the test with MCF-7, 9.2 ± 1.1 µM; with Panc-1, 10.4 ± 1.3 µM.

In the case of `O=C(CSc1nnc(-c2ccc3[nH]c(-c4ccccc4)nc3c2)o1)Nc1ccc(C(=O)/C=C/c2ccc(Cl)cc2)cc1` [Compound 7b, 2-{5-[2-Phenyl-1 H-benzo[d]imidazol-5-yl]-1,3,4-oxadiazol-2-ylthio}-N-{4-[(E)-3-(4-chlorophenyl)acryloyl]phenyl}acetamide], the inhibition at 10 µM with HCT-116 (setting [1]) was 8.66%; in the test with K-562 (K-562, Leukemia, NCI one dose) it was 0%; in the test on MOLT-4 (MOLT-4, Leukemia, NCI one dose), 6.55%; with RXF 393 (setting [2]), 0%; with T-47D (setting [3]), 12.3%; with UACC-257 (setting [4]) it was 0%. Moreover, the 50% inhibitory concentration (IC50) was 8.2 ± 0.9 µM with A-549, 9.1 ± 1.1 µM with HT-29, 7.9 ± 0.8 µM in the test on MCF-7 and 8.4 ± 1 µM with Panc-1.

On to `COc1ccc(/C=C/C(=O)c2ccc(NC(=O)CSc3nnc(-c4ccc5[nH]c(-c6ccccc6)nc5c4)o3)cc2)cc1` [Compound 7c, 2-{5-[2-Phenyl-1 H-benzo[d]imidazol-5-yl]-1,3,4-oxadiazol-2-ylthio}-N-{4-[(E)-3-(4-methoxyphenyl)acryloyl]phenyl}acetamide], for which the inhibition at 10 µM in the test with HCT-116 (setting [1]) was found to be 15.1%; in the test with K-562 (K-562, Leukemia, NCI one dose) it was 3.83%; in the test with MOLT-4 (MOLT-4, Leukemia, NCI one dose) it was 23.9%; in the test on RXF 393 (setting [2]) it was 8.38%; in the test with T-47D (setting [3]) it was 47.6%; in the test with UACC-257 (setting [4]), 0%. In addition, the “Growth Percent” value with T-47D (T-47D (Breast Cancer), 10 µM one dose) is 52.35%. The half-inhibitory concentration (IC50) with A-549 worked out at 4.7 ± 0.5 µM; in the test with HT-29, 5.5 ± 0.5 µM; in the test with MCF-7, 4.15 ± 0.5 µM; with Panc-1, 5.2 ± 0.4 µM.

As to `COc1ccc(/C=C/C(=O)c2ccc(NC(=O)CSc3nnc(-c4ccc5[nH]c(-c6ccccc6)nc5c4)o3)cc2)cc1OC` [Compound 7d, 2-{5-[2-Phenyl-1 H-benzo[d]imidazol-5-yl]-1,3,4-oxadiazol-2-ylthio}-N-{4-[(E)-3-(3,4-dimethoxyphenyl)acryloyl]phenyl}acetamide], the inhibition at 10 µM in the test on HCT-116 (setting [1]) is 6.47%; in the test with K-562 (K-562, Leukemia, NCI one dose), 0%; with MOLT-4 (MOLT-4, Leukemia, NCI one dose), 7.24%; in the test with RXF 393 (setting [2]) it was 0%; in the test with T-47D (setting [3]), 2.51%; in the test on UACC-257 (setting [4]), 0%. The half-maximal inhibitory concentration (IC50) came out at 9.7 ± 1.1 µM in the test on A-549, 11.1 ± 1.4 µM with HT-29, 8.9 ± 1.1 µM in the test with MCF-7 and 10.3 ± 1.3 µM in the test on Panc-1.

Regarding `O=C(CSc1nnc(-c2ccc3[nH]c(-c4ccc(Cl)cc4)nc3c2)o1)Nc1ccc(C(=O)/C=C/c2ccccc2)cc1` [Compound 7f, 2-{5-[2-(4-Chlorophenyl)-1 H-benzo[d]imidazol-5-yl]-1,3,4-oxadiazol-2-ylthio}-N-{4-[(E)-3-phenylacryloyl]phenyl}acetamide], the inhibition at 10 µM with HCT-116 (setting [5]) came out at 0%; in the test on K-562 (setting [6]) it was 8.26%; with MOLT-4 (setting [7]) it was 9%; with RXF 393 (setting [8]), 0%; in the test with T-47D (setting [9]), 0%; in the test on UACC-257 (setting [10]), 0%. The IC50 in the test on A-549 turned out to be 2.15 ± 0.5 µM; in the test on HT-29, 2.7 ± 0.5 µM; in the test with MCF-7, 2.05 ± 0.5 µM; in the test on Panc-1, 2.4 ± 0.6 µM.

As for `COc1ccc(-c2nc3cc(-c4nnc(SCC(=O)Nc5ccc(C(=O)/C=C/c6cc(OC)c(OC)c(OC)c6)cc5)o4)ccc3[nH]2)cc1` [Compound 7o, 2-{5-[2-(4-Methoxyphenyl)-1 H-benzo[d]imidazol-5-yl]-1,3,4-oxadiazol-2-ylthio}-N-{4-[(E)-3-(3,4,5-trimethoxyphenyl)acryloyl]phenyl}acetamide], the “Growth Percent” value with HCT-116 (HCT-116 (Colon Cancer), 10 µM one dose) is 50.04%. The inhibition at 10 µM in the test on HCT-116 (setting [1]) stood at 0%; in the test on K-562 (K-562, Leukemia, NCI one dose), 8.26%; in the test on MOLT-4 (MOLT-4, Leukemia, NCI one dose) it was 9%; with RXF 393 (setting [2]) it was 0%; with T-47D (setting [3]), 0%; with UACC-257 (setting [4]), 0%. For the same compound, the IC50 worked out at 7.6 ± 0.3 µM in the test on A-549, 8.6 ± 0.4 µM with HT-29, 7.1 ± 0.6 µM in the test on MCF-7 and 8.2 ± 1.2 µM in the test on Panc-1.

Take `COc1ccc(/C=C/C(=O)c2ccc(NC(=O)CSc3nnc(-c4ccc5[nH]c(-c6ccc(OC)c(OC)c6)nc5c4)o3)cc2)cc1` [Compound 7r, 2-{5-[2-(3,4-Dimethoxyphenyl)-1 H-benzo[d]imidazol-5-yl]-1,3,4-oxadiazol-2-ylthio}-N-{4-[(E)-3-(4-methoxyphenyl)acryloyl]phenyl}acetamide]: the inhibition at 10 µM with HCT-116 (setting [5]) came out at 3.79%; in the test on K-562 (setting [6]) it was 21.9%; with MOLT-4 (setting [7]) it was 34.5%; in the test on RXF 393 (setting [8]), 0%; in the test with T-47D (setting [9]) it was 28.9%; in the test with UACC-257 (setting [10]) it was 0%. The concentration for half-maximal inhibition (IC50) in the test on A-549 was determined as 3.6 ± 0.5 µM; with HT-29 it was 4.2 ± 0.5 µM; in the test with MCF-7 it was 3.1 ± 0.5 µM; with Panc-1 it was 3.9 ± 0.5 µM.

As for `COc1cc(-c2nc3cc(-c4nnc(SCC(=O)Nc5ccc(C(=O)/C=C/c6ccccc6)cc5)o4)ccc3[nH]2)cc(OC)c1OC` [Compound 7u, 2-{5-[2-(3,4,5-Trimethoxyphenyl)-1 H-benzo[d]imidazol-5-yl]-1,3,4-oxadiazol-2-ylthio}-N-{4-[(E)-3-phenylacryloyl]phenyl}acetamide], the inhibition at 10 µM in the test with HCT-116 (setting [5]) is 26.5%; in the test with K-562 (setting [6]), 14.9%; in the test on MOLT-4 (setting [7]) it was 21.8%; with RXF 393 (setting [8]), 0%; in the test on T-47D (setting [9]) it was 14.8%; in the test on UACC-257 (setting [10]), 0%. Besides, the half-maximal inhibitory concentration (IC50) stood at 2.25 ± 0.5 µM with A-549, 2.7 ± 0.5 µM in the test with HT-29, 2.1 ± 0.08 µM in the test with MCF-7 and 2.4 ± 0.2 µM with Panc-1.

The values above are taken from paper PMC10504751, “Chalcone/1,3,4-Oxadiazole/Benzimidazole hybrids as novel anti-proliferative agents inducing apoptosis and inhibiting EGFR & BRAFV^600E” (BMC Chemistry, 2023).
